Reference: patent US20230201207A1, “COMBINATION CANCER THERAPY USING N2-QUINOLINE OR ISOQUINOLINE SUBSTITUTED PURINE DERIVATIVES” (SHANGHAI HUAYU BIOTECHNOLOGY CO., LTD., priority 2020, published 2023)

Assays:
[1] = target: PI3K β isoform (Homo sapiens, UniProt P42338)
[2] = test system: PDGFR; experiment: Inhibition of PDGFR phosphorylation; assay type: biochemical
Description: (§1) FLT3 is a class III receptor tyrosine kinase and plays an important role in hematopoiesis and lymphocyte development. […] Wang et al found over 60% of 82 leukemia cell lines were FLT3 positive (Wang Y et al., (2006) Journal of Experimental Hematology 14(3): 446-449). […] Thus, the compounds of the disclosure with high inhibitory effect on FLT3 function may be good candidates for leukemia treatment.

[3] = test system: AKT; experiment: Inhibition of AKT phosphorylation; assay type: biochemical
Description: as §1

[4] = target: PI3K α isoform (Homo sapiens, UniProt P42336)
Sequence of PI3K α isoform (P42336 whole entry, canonical isoform): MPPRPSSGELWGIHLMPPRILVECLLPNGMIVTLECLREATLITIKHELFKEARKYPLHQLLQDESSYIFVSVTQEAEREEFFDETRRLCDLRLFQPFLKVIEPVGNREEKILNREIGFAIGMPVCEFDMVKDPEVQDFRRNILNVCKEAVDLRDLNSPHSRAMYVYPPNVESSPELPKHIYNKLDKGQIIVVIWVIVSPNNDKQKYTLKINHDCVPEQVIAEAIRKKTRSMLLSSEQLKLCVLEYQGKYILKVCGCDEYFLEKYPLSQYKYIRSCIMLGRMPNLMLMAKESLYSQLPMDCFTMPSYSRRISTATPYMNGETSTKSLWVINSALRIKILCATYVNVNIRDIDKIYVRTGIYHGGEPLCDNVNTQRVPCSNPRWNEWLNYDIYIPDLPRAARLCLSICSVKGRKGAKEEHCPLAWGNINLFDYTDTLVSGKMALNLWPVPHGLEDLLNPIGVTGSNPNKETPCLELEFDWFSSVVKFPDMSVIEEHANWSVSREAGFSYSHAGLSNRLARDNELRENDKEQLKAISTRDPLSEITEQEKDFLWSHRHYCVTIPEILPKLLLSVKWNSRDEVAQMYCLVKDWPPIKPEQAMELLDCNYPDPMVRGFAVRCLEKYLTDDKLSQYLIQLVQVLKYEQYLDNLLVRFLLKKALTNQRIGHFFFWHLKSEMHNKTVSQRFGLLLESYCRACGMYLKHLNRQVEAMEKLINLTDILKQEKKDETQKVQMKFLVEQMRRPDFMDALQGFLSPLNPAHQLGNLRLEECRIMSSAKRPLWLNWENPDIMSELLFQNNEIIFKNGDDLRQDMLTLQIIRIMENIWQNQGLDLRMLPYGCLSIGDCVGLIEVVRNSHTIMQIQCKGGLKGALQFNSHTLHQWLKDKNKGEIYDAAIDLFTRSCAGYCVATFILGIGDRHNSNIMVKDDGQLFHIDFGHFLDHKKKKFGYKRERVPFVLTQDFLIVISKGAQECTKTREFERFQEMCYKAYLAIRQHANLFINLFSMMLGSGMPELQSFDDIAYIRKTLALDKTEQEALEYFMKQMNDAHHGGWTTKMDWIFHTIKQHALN
Sequence of PI3K α isoform (P27986 whole entry partner, canonical isoform): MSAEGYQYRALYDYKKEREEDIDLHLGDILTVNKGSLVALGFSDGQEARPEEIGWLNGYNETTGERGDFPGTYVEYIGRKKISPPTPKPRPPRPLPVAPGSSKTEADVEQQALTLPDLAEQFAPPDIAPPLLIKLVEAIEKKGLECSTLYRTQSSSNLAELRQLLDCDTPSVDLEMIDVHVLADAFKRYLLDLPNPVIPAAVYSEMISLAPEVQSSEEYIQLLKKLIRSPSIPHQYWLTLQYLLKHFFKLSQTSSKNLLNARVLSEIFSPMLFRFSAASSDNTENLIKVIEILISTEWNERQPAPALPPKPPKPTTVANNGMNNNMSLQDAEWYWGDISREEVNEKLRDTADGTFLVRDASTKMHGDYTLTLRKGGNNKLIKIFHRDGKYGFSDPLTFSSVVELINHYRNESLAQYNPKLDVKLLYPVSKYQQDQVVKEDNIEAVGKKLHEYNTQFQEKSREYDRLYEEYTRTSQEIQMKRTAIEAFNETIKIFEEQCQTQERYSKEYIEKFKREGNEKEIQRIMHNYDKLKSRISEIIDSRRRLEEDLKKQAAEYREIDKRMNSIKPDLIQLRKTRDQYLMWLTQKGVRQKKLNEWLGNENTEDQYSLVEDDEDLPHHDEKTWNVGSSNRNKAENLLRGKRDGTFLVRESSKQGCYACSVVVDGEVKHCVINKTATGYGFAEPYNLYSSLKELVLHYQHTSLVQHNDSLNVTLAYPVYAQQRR

[5] = Body weight and survival of CT-26 WT tumor-bearing BALB/c mice; assay type: in vivo; details: for Average body weight: Anti-m-PD-1 10 mg/kg I.P., Compound A 40 mg/kg P.O.
Method: (§2) CT-26 WT cells were maintained at 37° C. in 5% CO2 in RPMI 1640 medium (10-040-CV, Corning cellgro) supplemented with 10% FBS (10270-106, GIBCO) and used before the 10th subculture. At Day 0, 45 BALB/c female mice, 5-6 weeks old, were each subcutaneously injected with about 200.0 μL. of the CT-26 WT cell medium containing about 5×10^5 cells.
(§3) At Day 9, 32 tumor-bearing mice were randomly allocated to four groups according to their tumor volumes, 8 mice per group. The rest were subject to euthanasia.
(§4) The four groups of animals were administered with an anti-m-PD-1 antibody (BE0146, BioXcell) in PBS (21-040-CVR, BioXcell) at 1.0 mg/mL, Compound A in saline at 4.0 mg/mL, the anti-m-PD-1 antibody in combination with Compound A, and the control vehicle (saline), respectively, at doses shown in Table 1 below.
(§5) Mice were observed every day for their physical conditions and activities, and mice body weight and tumor volume were measured every Tuesday, Thursday and Sunday. The tumor volume (V) was calculated as (length×width^2)/2.
(§6) At Day 23, mice were subject to euthanasia, from which tumors were collected, weighed and photographed. Mice body weights, tumor sizes and tumor weights were analyzed using the t-test in SPSS, and group differences were deemed statistically significant when the p-value was 0.05 or less.

[6] = target: PI3K γ isoform (Homo sapiens, UniProt P48736); experiment: PI3K isoform inhibition, γ isoform (method of CN104513254A)
Sequence of PI3K γ isoform (P48736 whole entry, canonical isoform): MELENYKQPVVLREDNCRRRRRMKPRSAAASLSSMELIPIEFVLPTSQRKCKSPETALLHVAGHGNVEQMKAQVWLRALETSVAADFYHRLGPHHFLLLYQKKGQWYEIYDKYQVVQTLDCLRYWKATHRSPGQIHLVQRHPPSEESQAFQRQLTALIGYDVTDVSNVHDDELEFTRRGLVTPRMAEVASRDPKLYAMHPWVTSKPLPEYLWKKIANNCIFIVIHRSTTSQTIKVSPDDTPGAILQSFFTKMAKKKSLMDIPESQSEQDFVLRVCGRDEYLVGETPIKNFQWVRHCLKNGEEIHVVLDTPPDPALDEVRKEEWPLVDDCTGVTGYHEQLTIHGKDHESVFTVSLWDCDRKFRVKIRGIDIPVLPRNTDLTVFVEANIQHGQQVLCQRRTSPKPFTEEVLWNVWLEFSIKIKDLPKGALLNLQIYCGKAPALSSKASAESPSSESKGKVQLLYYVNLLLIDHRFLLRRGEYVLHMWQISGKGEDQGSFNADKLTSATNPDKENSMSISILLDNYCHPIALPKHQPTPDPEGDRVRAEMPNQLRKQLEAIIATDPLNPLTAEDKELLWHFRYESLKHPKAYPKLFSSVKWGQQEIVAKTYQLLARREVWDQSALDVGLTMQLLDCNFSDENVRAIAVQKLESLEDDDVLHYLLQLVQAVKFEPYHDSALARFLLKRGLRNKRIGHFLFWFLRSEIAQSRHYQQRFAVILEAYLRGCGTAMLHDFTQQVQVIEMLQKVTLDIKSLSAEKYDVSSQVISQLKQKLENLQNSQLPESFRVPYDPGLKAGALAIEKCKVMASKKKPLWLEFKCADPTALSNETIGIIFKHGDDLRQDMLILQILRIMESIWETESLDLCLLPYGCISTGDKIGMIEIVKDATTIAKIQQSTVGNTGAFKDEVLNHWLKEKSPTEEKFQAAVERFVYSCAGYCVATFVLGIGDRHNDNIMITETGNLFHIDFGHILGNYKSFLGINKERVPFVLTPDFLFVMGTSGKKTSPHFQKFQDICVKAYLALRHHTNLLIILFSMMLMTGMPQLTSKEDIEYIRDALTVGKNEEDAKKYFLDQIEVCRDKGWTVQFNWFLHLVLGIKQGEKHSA

[7] = test system: CT-26 WT cells; experiment: Anti-tumor effect in CT-26 WT tumor-bearing BALB/c mice; assay type: in vivo; details: for Average tumor size: Anti-m-PD-1 10 mg/kg I.P., Compound A 40 mg/kg P.O.
Method: as §2, §3, §4, §5, §6
Tumor growth inhibition (TGI) was calculated based on tumor weight or tumor volume. Further, Zheng-Jun Jin's Q value was calculated using the formula Q=EA+B/(EA+EB−EA×EB) to assess the combined effect of the anti-PD-1 antibody and Compound A, wherein EA+B, EA, and EB referred to the TGIs of the combination therapy, anti-PD-1 administration and Compound A administration, respectively. A Q value higher than 1.15 indicated a synergistic or additive effect.

[8] = human, in vivo; cited from earlier work

Sequence of PI3K β isoform (P42338 whole entry, canonical isoform): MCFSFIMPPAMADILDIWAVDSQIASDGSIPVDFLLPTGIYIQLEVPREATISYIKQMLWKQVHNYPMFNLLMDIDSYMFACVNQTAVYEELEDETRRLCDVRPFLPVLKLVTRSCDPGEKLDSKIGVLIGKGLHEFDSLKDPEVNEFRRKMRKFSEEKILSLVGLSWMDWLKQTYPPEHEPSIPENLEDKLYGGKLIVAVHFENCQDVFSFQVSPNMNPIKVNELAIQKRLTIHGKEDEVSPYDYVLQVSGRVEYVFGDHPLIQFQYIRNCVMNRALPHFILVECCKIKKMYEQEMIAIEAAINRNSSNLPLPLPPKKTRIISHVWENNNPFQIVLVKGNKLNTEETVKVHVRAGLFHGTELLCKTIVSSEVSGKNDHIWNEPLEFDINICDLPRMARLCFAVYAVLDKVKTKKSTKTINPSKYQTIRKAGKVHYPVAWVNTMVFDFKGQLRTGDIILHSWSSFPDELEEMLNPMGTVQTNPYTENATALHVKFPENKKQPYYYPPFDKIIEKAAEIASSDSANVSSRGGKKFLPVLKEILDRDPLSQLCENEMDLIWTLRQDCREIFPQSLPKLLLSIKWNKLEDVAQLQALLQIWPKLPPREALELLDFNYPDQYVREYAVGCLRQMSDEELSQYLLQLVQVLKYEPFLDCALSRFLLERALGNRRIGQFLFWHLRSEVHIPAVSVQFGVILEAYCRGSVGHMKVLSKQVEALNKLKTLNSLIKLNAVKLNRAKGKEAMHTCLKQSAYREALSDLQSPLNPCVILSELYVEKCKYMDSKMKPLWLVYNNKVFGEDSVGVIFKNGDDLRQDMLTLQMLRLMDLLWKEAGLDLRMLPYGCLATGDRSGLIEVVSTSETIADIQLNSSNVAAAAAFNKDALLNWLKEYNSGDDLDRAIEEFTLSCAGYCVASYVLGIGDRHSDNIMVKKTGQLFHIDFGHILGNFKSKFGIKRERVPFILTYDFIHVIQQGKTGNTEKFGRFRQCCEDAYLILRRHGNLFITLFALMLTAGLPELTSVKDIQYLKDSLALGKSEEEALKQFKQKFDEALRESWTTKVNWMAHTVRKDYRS
Sequence of PI3K β isoform (P27986 whole entry partner, canonical isoform): as the sequence (P27986 whole entry partner, canonical isoform) above

With `c1cnc2ccc(Nc3nc(NC4CC4)c4nc[nH]c4n3)cc2c1` [Compound A] the “EC50, PI3K β isoform inhibition” value [1] was “μM level”, the EC50 [2] was roughly 1000 nM and the EC50 [3] was roughly 100 nM. The “EC50, PI3K α isoform inhibition” value [4] was “μM level”, the Average body weight ([5]; Day 9 (allocation)) was 15.59 g and the Average body weight ([5]; Day 10) was 15.16 g. The Average body weight ([5]; Day 12) was 15.86 g, the Average body weight ([5]; Day 14) was 15.91 g and the Average body weight ([5]; Day 16) was 16.46 g. The Average body weight ([5]; Day 18) was 16.75 g, the Average body weight ([5]; Day 20) was 17.01 g and the Average body weight ([5]; Day 22) was 17.72 g. For the same compound, the “Mice weight with the tumor weight deducted” value ([5]; Day 23) was 16.22 g, the Average body weight ([5]; Day 23) was 18.15 g and the “EC50, PI3K γ isoform inhibition” value [6] was “μM level”. For the same compound, the Average tumor size ([7]; Day 9 (allocation)) was 176.94 mm^3, the Average tumor size ([7]; Day 10) was 272.49 mm^3 and the Average tumor size ([7]; Day 12) was 492.26 mm^3. It also gave an Average tumor size ([7]; Day 14) of 672.51 mm^3, an Average tumor size ([7]; Day 16) of 876.22 mm^3 and an Average tumor size ([7]; Day 18) of 1099.45 mm^3. The Average tumor size ([7]; Day 20) was 1348.89 mm^3, the Average tumor size ([7]; Day 22) was 1698.25 mm^3 and the “Tumor volume based TGI” value ([7]; Day 23) was 19.35%. For the same compound, the “Tumor weight based TGI” value ([7]; Day 23) was 31.71%, the Average tumor size ([7]; Day 23) was 1870.89 mm^3 and the “Tumor weight, Average” value ([7]; group average at Day 23, 8 mice) was 1.93 g. The “Tumor weight, Mouse no. 1” value ([7]; individual tumor isolated at Day 23, Mouse no. 1) was 1.14 g, the “Tumor weight, Mouse no. 2” value ([7]; individual tumor isolated at Day 23, Mouse no. 2) was 2.11 g and the “Tumor weight, Mouse no. 3” value ([7]; individual tumor isolated at Day 23, Mouse no. 3) was 2.11 g. For the same compound, the “Tumor weight, Mouse no. 4” value ([7]; individual tumor isolated at Day 23, Mouse no. 4) was 0.89 g, the “Tumor weight, Mouse no. 5” value ([7]; individual tumor isolated at Day 23, Mouse no. 5) was 1.68 g and the “Tumor weight, Mouse no. 6” value ([7]; individual tumor isolated at Day 23, Mouse no. 6) was 2.16 g. The “Tumor weight, Mouse no. 7” value ([7]; individual tumor isolated at Day 23, Mouse no. 7) was 2.73 g and the “Tumor weight, Mouse no. 8” value ([7]; individual tumor isolated at Day 23, Mouse no. 8) was 2.64 g.
For Ipilimumab, the “Patients who experienced immune-related adverse effects” value [8] is given as 64%.
